Assay results from ChEMBL document CHEMBL1145265, “Chiral discrimination in binding of enantiomers of 2-(aminoalkoxy)-substituted 4-(2-thienyl)pyrimidines and 4,6-bis(2-thienyl)pyrimidines with duplex DNA” (Bioorg Med Chem Lett, 2005).

test system: Calf thymus DNA; assay: Ratio of binding constant of S-enantiomer and R-enantiomer towards sonicated calf thymus DNA; type: nucleic-acid assay; conditions: Bos taurus

SMILES	Ratio
NCCOc1nc(-c2cccs2)cc(-c2cccs2)n1	2.7
Cc1c(-c2cccs2)nc(OCC(N)C(C)C)nc1-c1cccs1 (configuration not stated)	1.5
Cc1c(-c2cccs2)nc(OCC(C)N)nc1-c1cccs1 (configuration not stated)	1.5
CCC(N)COc1nc(-c2cccs2)c(C)c(-c2cccs2)n1 (configuration not stated)	1.6
Cc1cnc(OCC2CCCN2)nc1-c1cccs1 (configuration not stated)	1.4
CCC(N)COc1nc(-c2cccs2)cc(-c2cccs2)n1 (configuration not stated)	1.4
CC(N)COc1nc(-c2cccs2)cc(-c2cccs2)n1 (configuration not stated)	1.2
CC(C)C(N)COc1nc(-c2cccs2)cc(-c2cccs2)n1 (configuration not stated)	2.2
Cc1c(-c2cccs2)nc(OCC2CCCN2)nc1-c1cccs1 (configuration not stated)	1.8
Cc1cnc(OCC(N)C(C)C)nc1-c1cccs1 (configuration not stated)	1.6
c1csc(-c2cc(-c3cccs3)nc(OCC3CCCN3)n2)c1 (configuration not stated)	2.4
Cc1c(-c2cccs2)nc(OCCN)nc1-c1cccs1	2.2
